According to US9975852B2, “Quinoline sulfonyl derivatives and uses thereof” (Health Sciences North Research Institute, priority 2013, dated 2018):
Like-named read-outs stand apart in the source and are kept apart here.

Experiments:
MCF7 = assay: SRB antiproliferative assay, MCF7; format: cell-based, human; details: Homo sapiens, MCF7; SRB, 48 h; read-out: GI50 MCF7
Experimental: (§1) Antiproliferative effects were determined by a sulforhodamine B (SRB) based protocol. For a typical screening experiment, 5,000-10,000 cells were inoculated into 100 μl medium per well of a 96-well microtiter plate as described previously. […] Some of the sample wells were fixed with 25 μl of 50% trichloroacetic acid (TCA) as a control of the cell population for each cell line at the time of drug addition (Tz). An aliquot of the frozen stock was thawed and diluted to the desired final maximum test-concentration with complete medium. Two to ten-fold serial dilutions were made to provide a total of seven drug concentrations (and a control [C]). Following addition of drugs, the culture plate was incubated for additional 48 h. Cells were fixed in situ by slowly adding 25 μl of ice-cold 50% (w/v) TCA (final concentration, 10% TCA), and were then incubated for 60 min at 4° C. The supernatant was discarded, and the plate was washed five times with tap water, followed by air-dry. 50 μl of SRB solution at 0.4% (w/v) in 1% acetic acid was added to each well, and the plate was incubated for >30 min at room temperature. Unbound SRB was removed by five washes with tap water, followed by air-drying. […] The relative growth rate (%) was calculated for each of the compound concentrations according to the following formula: (Ti−Tz)/(C−Tz)×100 In the formula, time zero (Tz), control growth (C), and OD for different concentration of tested compounds (Ti). The GI50 for each compound was obtained from a non-linear Sigmoidal dose-response (variable slope) curve which is fitted by GraphPad Prism™ v.4.03 software. Values were calculated for each of these parameters if the level of activity was reached. However, if the effect was not reached or was exceeded, the value for that parameter was expressed as greater or less than the maximum or minimum concentration tested. Flow Cytometry

MDA-MB231 = assay: SRB antiproliferative assay, MDA-MB231; format: cell-based, human; details: Homo sapiens, MDA-MB-231, 48 h
Experimental: as §1

184B5 = assay: SRB antiproliferative assay, 184B5 non-cancer breast cells; format: cell-based, human; details: Homo sapiens, read-out: GI50 184B5
Experimental: as §1

MDA-MB468 = assay: SRB antiproliferative assay, MDA-MB468; format: cell-based, human; details: Homo sapiens, MDA-MB-468, 48 h
Experimental: as §1

melting point [°C]	GI50 (MCF7) [µM]	GI50 (MDA-MB231) [µM]	GI50 (MDA-MB468) [µM]	SMILES	GI50 (184B5; 184B5, SRB, 48 h) [µM]	GI50 (184B5; 184B5, 48 h) [µM]
117 to 119	22.37 ± 0.21	40.4 ± 0.82	30.2 ± 0.71	COC(=O)c1sccc1S(=O)(=O)N1CCN(c2ccnc3cc(Cl)ccc23)CC1 [Compound 2, Methyl 3-(4-(7-chloroquinolin-4-yl)piperazin-1-ylsulfonyl)thiophene-2-carboxylate]	15.2 ± 0.18	
238 to 240	9.23 ± 0.21	26.2 ± 0.62	18.2 ± 0.54	O=S(=O)(c1ccc(-c2ccccc2)cc1)N1CCN(c2ccnc3cc(Cl)ccc23)CC1 [Compound 3, 7-Chloro-4-(4-(biphenylsulfonyl)piperazin-1-yl)quinoline]	16.4 ± 0.23	
145 to 147		35 ± 0.76	27.5 ± 0.66	CN(C)c1cccc2c(S(=O)(=O)N3CCN(c4ccnc5cc(Cl)ccc45)CC3)cccc12 [Compound 4, 5-(4-(7-Chloroquinolin-4-yl)piperazin-1-ylsulfonyl)-N,N-dimethylnaphthalen-1-amine]	28.25 ± 0.26	
145 to 147	13.5 ± 0.23	40.6 ± 0.81	21.6 ± 0.61	O=S(=O)(c1ccc(Cl)cc1Cl)N1CCN(c2ccnc3cc(Cl)ccc23)CC1 [Compound 5, 7-Chloro-4-(4-(2,4-dichlorophenylsulfonyl)piperazin-1-yl)quinoline]	12.4 ± 0.15	
199 to 201	9.44 ± 0.25	32.2 ± 0.68	18.6 ± 0.57	O=[N+]([O-])c1cccc(S(=O)(=O)N2CCN(c3ccnc4cc(C(F)(F)F)ccc34)CC2)c1 [Compound 6, 4-[4-(3-Nitro-benzenesulfonyl)-piperazin-1-yl]-7-trifluoromethyl-quinoline]	17.7 ± 0.21	
144 to 146	27.36 ± 0.27	41.4 ± 0.83	34.9 ± 0.78	O=S(=O)(c1ccc(Cl)cc1)N1CCN(c2ccnc3cc(C(F)(F)F)ccc23)CC1 [Compound 7, 4-[4-(4-Chloro-benzenesulfonyl)-piperazin-1-yl]-7-trifluoromethyl-quinoline]		
126 to 128	20.8 ± 0.23	42.7 ± 0.83	36.5 ± 0.75	Cc1ccc(S(=O)(=O)N2CCN(c3ccnc4cc(C(F)(F)F)ccc34)CC2)cc1 [Compound 8, 4-[4-(Toluene-4-sulfonyl)-piperazin-1-yl]-7-trifluoromethyl-quinoline]	13 ± 0.14	
148 to 150	14.8 ± 0.19	27.2 ± 0.61	20.5 ± 0.54	O=S(=O)(c1ccc(-c2ccccc2)cc1)N1CCN(c2ccnc3cc(C(F)(F)F)ccc23)CC1 [Compound 9, 4-[4-(Biphenyl-4-sulfonyl)-piperazin-1-yl]-7-trifluoromethyl-quinoline]	19.1 ± 0.24	
137 to 139	16.7 ± 0.19	20.3 ± 0.53	18.6 ± 0.55	O=S(=O)(c1ccc(Cl)cc1Cl)N1CCN(c2ccnc3cc(C(F)(F)F)ccc23)CC1 [Compound 10, 4-[4-(2,4-Dichloro-benzenesulfonyl)-piperazin-1-yl]-7-trifluoromethyl-quinoline]	20.4 ± 0.23	
116 to 118	25.6 ± 0.26	44.4 ± 0.85	28.6 ± 0.69	CS(=O)(=O)N1CCN(c2ccnc3cc(C(F)(F)F)ccc23)CC1 [Compound 11, 4-(4-Methanesulfonyl-piperazin-1-yl)-7-trifluoromethyl-quinoline]	93.93 ± 0.89	
98 to 100	12.8 ± 0.21	22 ± 0.59	19 ± 0.55	CN(C)c1cccc2c(S(=O)(=O)N3CCN(c4ccnc5cc(C(F)(F)F)ccc45)CC3)cccc12 [Compound 13, Dimethyl-{5-[4-(7-trifluoromethyl-quinolin-4-yl)-piperazine-1-sulfonyl]-naphthalen-1-yl}-amine]	12 ± 0.15	
117 to 119	16 ± 0.24	34.7 ± 0.71	23.9 ± 0.64	COC(=O)c1sccc1S(=O)(=O)N1CCN(c2ccnc3cc(C(F)(F)F)ccc23)CC1 [Compound 14, 3-[4-(7-Trifluoromethyl-quinolin-4-yl)-piperazine-1-sulfonyl]-thiophene-2-carboxylic acid methyl ester]	15.88 ± 0.14	
	23.1 ± 0.87	40.9 ± 1.52	28.6 ± 1.03	CS(=O)(=O)NCCCNc1ccnc2cc(Cl)ccc12 [Compound 15, N-[3-(7-Chloro-quinolin-4-ylamino)-propyl]-methanesulfonamide]	23.3 ± 0.92	
	5.25 ± 0.45	6.16 ± 0.51	5.77 ± 0.41	Cc1ccc(S(=O)(=O)NCCCNc2ccnc3cc(Cl)ccc23)cc1 [Compound 16, N-[3-(7-Chloro-quinolin-4-ylamino)-propyl]-4-methyl-benzenesulfonamide]	9.56 ± 0.53	
	8.62 ± 0.38	20.4 ± 1.15	9.21 ± 0.65	O=[N+]([O-])c1cccc(S(=O)(=O)NCCCNc2ccnc3cc(Cl)ccc23)c1 [Compound 18, N-(3-(7-Chloroquinolin-4-ylamino)propyl)-3-nitrobenzenesulfonamide]	15.8 ± 0.88	
	4.31 ± 0.32	11.8 ± 0.91	8.34 ± 0.73	O=S(=O)(NCCCNc1ccnc2cc(Cl)ccc12)c1ccc(Cl)cc1 [Compound 19, 4-Chloro-N-(3-(7-chloroquinolin-4-ylamino)propyl)benzenesulfonamide]	6.36 ± 0.34	
116 to 118	2.47 ± 0.23	4.63 ± 0.42	4.46 ± 0.37	O=S(=O)(NCCCNc1ccnc2cc(Cl)ccc12)c1ccc(-c2ccccc2)cc1 [Compound 20, Biphenyl-4-sulfonic acid [3-(7-chloro-quinolin-4-ylamino)-propyl]-amide]	2.41 ± 0.09	
145 to 147	4.04 ± 0.22	6.76 ± 0.55	3.61 ± 0.12	O=S(=O)(NCCCNc1ccnc2cc(Cl)ccc12)c1ccc(Cl)cc1Cl [Compound 21, 2,4-Dichloro-N-[3-(7-chloro-quinolin-4-ylamino)-propyl]-benzenesulfonamide]	3.55 ± 0.21	
171 to 173	25.3 ± 1.23	55.9 ± 1.56	30.4 ± 0.99	CS(=O)(=O)NCCCNc1ccnc2cc(C(F)(F)F)ccc12 [Compound 23, N-[3-(7-Trifluoromethyl-quinolin-4-ylamino)-propyl]-methanesulfonamide]	59.5 ± 1.56	
77 to 79	6.9 ± 0.45	6.36 ± 0.48	6.21 ± 0.42	Cc1ccc(S(=O)(=O)NCCCNc2ccnc3cc(C(F)(F)F)ccc23)cc1 [Compound 24, 4-Methyl-N-[3-(7-trifluoromethyl-quinolin-4-ylamino)-propyl]-benzenesulfonamide]	12.2 ± 0.86	
98 to 100	8.25 ± 0.52	15.8 ± 0.95	9.09 ± 0.57	O=[N+]([O-])c1cccc(S(=O)(=O)NCCCNc2ccnc3cc(C(F)(F)F)ccc23)c1 [Compound 26, 3-Nitro-N-[3-(7-trifluoromethyl-quinolin-4-ylamino)-propyl]-benzenesulfonamide]	8.01 ± 0.76	
70 to 72	5.44 ± 0.34	12.8 ± 0.88	10.3 ± 0.56	O=S(=O)(NCCCNc1ccnc2cc(C(F)(F)F)ccc12)c1ccc(Cl)cc1 [Compound 27, 4-Chloro-N-[3-(7-trifluoromethyl-quinolin-4-ylamino)-propyl]-benzenesulfonamide]	7.63 ± 0.43	

SMILES	melting point [°C]	GI50 (MCF7) [µM]	GI50 (MDA-MB231) [µM]	GI50 (MDA-MB468) [µM]	GI50 (184B5; 184B5, SRB, 48 h) [µM]	GI50 (184B5; 184B5, 48 h) [µM]
O=[N+]([O-])c1ccc(S(=O)(=O)N2CCN(c3ccnc4cc(C(F)(F)F)ccc34)CC2)c([N+](=O)[O-])c1 [Compound 12, 4-[4-(2,4-Dinitro-benzenesulfonyl)-piperazin-1-yl]-7-trifluoromethyl-quinoline]	178 to 180	10.8 ± 0.12	24.3 ± 0.63	19.2 ± 0.61		37.78 ± 0.35
O=[N+]([O-])c1ccc(S(=O)(=O)NCCCNc2ccnc3cc(Cl)ccc23)c([N+](=O)[O-])c1 [Compound 17, N-[3-(7-Chloro-quinolin-4-ylamino)-propyl]-2,4-dinitro-benzenesulfonamide]	238 to 240	6.16 ± 0.32	8.85 ± 0.71	7.35 ± 0.23		9.09 ± 0.56
O=[N+]([O-])c1ccc(S(=O)(=O)NCCCNc2ccnc3cc(C(F)(F)F)ccc23)c([N+](=O)[O-])c1 [Compound 25, 2,4-Dinitro-N-[3-(7-trifluoromethyl-quinolin-4-ylamino)-propyl]-benzenesulfonamide]	198 to 200	5.56 ± 0.34	8.91 ± 0.77	8.46 ± 0.41		15.9 ± 0.89
